The results in this text go back to ChEMBL document CHEMBL1154952, “N1-Alkyl pyrimidinediones as non-nucleoside inhibitors of HIV-1 reverse transcriptase” (Bioorg Med Chem Lett, 2010).

Converted amounts (≈) assume the structure as drawn.

The test system of data set [1] is Human immunodeficiency virus 1. The experiment in a line: Antiviral activity against wild type HIV1 infected in human MT2 cells. It is filed as functional, organism-based. The settings on record: Human immunodeficiency virus 1, MT2.
Data set [2] concerns Human immunodeficiency virus 1. The experiment in a line: Antiviral activity against NNRTI-resistant HIV1 harboring reverse transcriptase K103N mutant infected in human MT2 cells. The settings on record: Human immunodeficiency virus 1, MT2. It counts as functional, organism-based.
Data set [3] relates to Human immunodeficiency virus 1. Nature of the data set: Antiviral activity against HIV1 harboring reverse transcriptase Y181C mutant infected in human MT2 cells. It counts as functional, organism-based. To be noted: Human immunodeficiency virus 1, MT2.
For another data set, the target named is Albumin (Homo sapiens, UniProt P02768). Nature of the data set: Binding affinity to human serum albumin. It is filed as ADME. To be noted: read-out: PB (converted).
Sequence of Albumin (P02768 whole entry): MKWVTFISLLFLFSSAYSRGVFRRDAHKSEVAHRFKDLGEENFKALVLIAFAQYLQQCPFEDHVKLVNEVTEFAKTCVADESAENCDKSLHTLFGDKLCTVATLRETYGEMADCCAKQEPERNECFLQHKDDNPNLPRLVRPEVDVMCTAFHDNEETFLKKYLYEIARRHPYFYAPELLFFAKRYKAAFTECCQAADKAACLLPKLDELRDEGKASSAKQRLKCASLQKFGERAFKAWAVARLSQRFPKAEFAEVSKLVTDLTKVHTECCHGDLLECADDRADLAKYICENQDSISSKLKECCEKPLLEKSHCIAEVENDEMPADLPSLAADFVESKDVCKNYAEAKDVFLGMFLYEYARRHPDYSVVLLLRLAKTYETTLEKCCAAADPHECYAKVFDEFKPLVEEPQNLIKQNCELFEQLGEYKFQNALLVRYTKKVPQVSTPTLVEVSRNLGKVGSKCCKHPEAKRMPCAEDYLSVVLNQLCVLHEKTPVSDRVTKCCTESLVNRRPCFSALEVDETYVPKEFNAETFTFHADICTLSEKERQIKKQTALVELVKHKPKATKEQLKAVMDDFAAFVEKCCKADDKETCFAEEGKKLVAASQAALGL
Data set [4] in a line: Volume of distribution at steady state in Beagle dog at 0.5 mg/kg, iv or. 5 mg/kg, po. It counts as ADME, organism-based, Canis lupus familiaris. To be noted: in vivo, read-out: Vdss.
Data set [5] is described as follows: Oral bioavailability in Beagle dog at 4 mg/kg. It counts as ADME, organism-based, Canis lupus familiaris. To be noted: in vivo.
Data set [6] is described as follows: Half life in Beagle dog at 0.5 mg/kg, iv or. 5 mg/kg, po. The settings on record: in vivo. It counts as ADME, organism-based, Canis lupus familiaris.
The nature of data set [7]: Oral bioavailability in Beagle dog at 5 mg/kg, po dosed as suspension. It counts as ADME, organism-based, Canis lupus familiaris. The settings on record: in vivo.
Data set [8] in a line: Aqueous solubility in 50 mM phosphate buffer. It is filed as physicochemical.
Data set [9] is described as follows: AUC ((0 to infinity)) in Beagle dog at 5 mg/kg, po dosed as Tablet formulation. It counts as ADME, organism-based, Canis lupus familiaris. More on the design: time infinity, dose 5 mg/kg, route oral. To be noted: plasma.
Data set [10] can be described thus: AUC ((0 to infinity)) in Beagle dog at 5 mg/kg, po dosed as suspension. It counts as ADME, organism-based, Canis lupus familiaris. Further details: time infinity, dose 5 mg/kg, route oral. The settings on record: plasma.
Data set [11] is described as follows: Oral bioavailability in Beagle dog at 5 mg/kg, po dosed as Tablet formulation. It counts as ADME, organism-based, Canis lupus familiaris. The settings on record: in vivo.
In a further data set the test system is Canis familiaris. The experiment in a line: Toxicity in Beagle dog assessed as emesis at greater than 5 mg/kg, po dosed as suspension. It is filed as organism-based, Canis lupus familiaris. More on the design: dose 5 mg/kg, route oral. To be noted: in vivo.
In data set [12] the test system is Human immunodeficiency virus 1. Nature of the data set: Ratio of EC50 for HIV1 harboring reverse transcriptase K103N mutant in absence of 50% human serum to EC50 for HIV1 harboring reverse transcriptase K103N mutant in presence of 50% human serum. It is filed as functional.
The test system of data set [13] is Human immunodeficiency virus 1. Nature of the data set: Ratio of EC50 for HIV1 harboring reverse transcriptase Y181C mutant in absence of 50% human serum to EC50 for HIV1 harboring reverse transcriptase Y181C mutant in presence of 50% human serum. It counts as functional.
Data set [14] has as its system Human immunodeficiency virus 1. Nature of the data set: Ratio of EC50 for wild type HIV1 in absence of 50% human serum to EC50 for wild type HIV1 in presence of 50% human serum. It counts as functional.
The nature of data set [15]: Oral bioavailability in Beagle dog at 0.5 mg/kg. To be noted: in vivo. It counts as ADME, organism-based, Canis lupus familiaris.
Data set [16] in a line: Oral bioavailability in Beagle dog at 2 mg/kg. It counts as ADME, organism-based, Canis lupus familiaris. To be noted: in vivo.

For orientation: EC50 means the concentration giving half of the maximal effect. The low end stands for greater potency, the high end for weaker potency. Turning to `CCn1c(C(F)(F)c2cc(C)cc(C#N)c2)c(C(C)C)c(=O)[nH]c1=O`, the EC50 was 4.2 nM in data set [1], 9 nM in data set [2] and 4.3 nM in [3]. Further, on Albumin, the fraction unbound is 0.013.

As to `O=C1Nc2ccc(Cl)cc2[C@@](C#CC2CC2)(C(F)(F)F)O1` [EFAVIRENZ], the fraction unbound at Albumin is 0.001.

For orientation: half-life means the time in which the quantity being followed falls by half. High values mean slow decline, low ones rapid decline. For `Cc1cc(C#N)cc(C)c1Oc1nc(Nc2ccc(C#N)cc2)nc(N)c1Br` [ETRAVIRINE], the Vd in data set [4] came to 1.6 L/kg. For the same molecule, the bioavailability in [5] was 13%. The same molecule showed a half-life in [6] of 8.87 h. Also, on Albumin, the fraction unbound was 0.002.

As for `CCn1c(C(F)c2cc(C)cc(C#N)c2)c(C(C)C)c(=O)[nH]c1=O` (stereo not drawn), the EC50 is 21 nM in data set [1], greater than 24 nM in data set [2] and 8.1 nM in data set [3]. Besides, the fraction unbound on Albumin is 0.02.

For orientation: solubility means the concentration that dissolves in the medium under given conditions. As a reminder, the AUC(0-inf) is total exposure, with the tail of the curve extrapolated. For `CCn1c(C(=O)c2cc(C)cc(C#N)c2)c(C(C)C)c(=O)n(COC(=O)OC(C)C)c1=O`, the bioavailability was determined as 108% in [7] and 24% in data set [11]. The same molecule had a solubility in [8] of less than 1 µg/mL. For the same molecule, the AUC(0-inf) in [9] is 4.54 µM·h; in data set [10], 54 µM·h.

For the molecule `CCn1c(Oc2cc(C)cc(C#N)c2)c(C(C)C)c(=O)[nH]c1=O`, the EC50 in [1] was 35 nM; in [2], greater than 14 nM; in data set [3], 2.6 nM. Also, the fraction unbound on Albumin was 0.04.

Turning to `CCc1c(C(=O)c2cc(C)cc(C#N)c2)n(CC)c(=O)[nH]c1=O`, the EC50 was 11.7 nM in [1], greater than 43 nM in data set [2] and greater than 43 nM in [3]. Besides, in data set [4], the Vd was determined as 1.53 L/kg. Also, the half-life in data set [6] was 1.42 h. Also, on Albumin, the fraction unbound is 0.149.

With `CCn1c(C(=O)c2cc(C)cc(C#N)c2)c(C(C)(C)C)c(=O)[nH]c1=O`, the EC50 in data set [1] was 10 nM; in data set [2], 2.7 nM; in data set [3], greater than 50 nM. For the same molecule, at Albumin, the fraction unbound was 0.007.

Take `CCn1c(C(=O)c2cc(C)cc(C#N)c2)c(C(C)C)c(=O)n(COC(C)=O)c1=O`: the bioavailability in [7] was found to be 48.9%; in data set [11], 35.3%. Besides, the solubility in [8] came to 2.2 µg/mL (≈ 5.54 µM). The AUC(0-inf) is 8.78 µM·h in data set [9] and 14.7 µM·h in [10].

With `Cc1cc(C#N)cc(C(=O)c2[nH]c(=O)[nH]c(=O)c2C(C)C)c1`, the concentration giving a half-maximal response (EC50) is greater than 500 nM in data set [1], greater than 1 nM in [2] and greater than 1 nM in data set [3]. For the same molecule, the Vd in [4] turned out to be 0.45 L/kg. In data set [6], the half-life is 6.4 h.

On to `CCCn1c(C(=O)c2cc(C)cc(C#N)c2)c(C(C)C)c(=O)[nH]c1=O`, for which the EC50 in data set [1] was 3.6 nM; in data set [2], greater than 36 nM; in [3], greater than 58 nM. For the same molecule, the Vd in [4] was found to be 1.4 L/kg. Further, in data set [6], the half-life was 1.67 h. In addition, at Albumin, the fraction unbound is 0.009.

On to `Cc1cc(C#N)cc(C(=O)c2c(C(C)C)c(=O)[nH]c(=O)n2C)c1`, for which the EC50 in data set [1] was 187 nM; in [2], greater than 2.7 nM; in data set [3], greater than 2.7 nM. Moreover, the fraction unbound on Albumin was 0.141.

As for `CCn1c(C(=O)c2cc(C)cc(C#N)c2)c(C(C)C)c(=O)n(COP(=O)(O)O)c1=O`, the bioavailability in [7] stood at 75.2%. This molecule displayed a solubility in data set [8] of 12000 µg/mL (≈ 27600 µM). The molecule also came in with an AUC(0-inf) in data set [10] of 18.8 µM·h. Also, the Activity result in the data set on Canis familiaris is on record as “Toxic”.

Regarding `CCn1c(C(=O)c2cc(C)cc(C#N)c2)c(C(C)C)c(=O)[nH]c1=O`, the results for the EC50 in data set [1], in data set [2] and in data set [3] were 6.1 nM, 6.4 nM and 9.6 nM, respectively. Moreover, in data set [4], the Vd stood at 2.25 L/kg. Also, the bioavailability in data set [7] worked out at 35.8%; in data set [11] it was 45.1%; in [15], 69%. In data set [8], this molecule displayed a solubility of 11 µg/mL (≈ 33.8 µM). Moreover, the “Ratio EC50” value in [12], in data set [13] and in data set [14] was 2.7 each time. For the same molecule, the AUC(0-inf) in [9] worked out at 13.5 µM·h; in [10], 13.1 µM·h. For the same molecule, the half-life in [6] was 6.5 h. Moreover, on Albumin, the fraction unbound was 0.166.

For the molecule `CCCCn1c(C(=O)c2cc(C)cc(C#N)c2)c(C(C)C)c(=O)[nH]c1=O`, the EC50 in data set [1] amounted to 3 nM; in data set [2], 10 nM; in data set [3], 12 nM. The Vd in data set [4] was 2.23 L/kg. In addition, in [6], the half-life is 6.1 h. The bioavailability in data set [16] is 28%. Further, the fraction unbound on Albumin was 0.001.
